Measured values reported in US9505798B2, “Steroid compounds as RORyt modulators and uses thereof” (New York University, priority 2010, dated 2016).

Legend:
[1] = system: human Th17 cell differentiation; test: Human Th17 cell differentiation from naive cord blood CD4+ T cells; assay type: cell-based
Procedure: GFP expressing cells were gated for analysis. DMSO, Dig(dhd) (40 μM) or Dig(sal) (10 μM) was added 6-8 h after viral transduction. c, Flow cytometry of the production of IL-17a and IFN-γ by human naive cord blood T cells cultured for six days in the presence of IL-2, IL-23, and IL-1β, with various concentrations of TGF-β. DMSO, Dig(dhd), or Dig(sal) at indicated concentrations (μM) was added 16 h after cytokine addition.
Blood samples were obtained from the New York Blood Center. Mononuclear cells were prepared from buffy coats from healthy adult donors or from cord blood, using FicollPAQUE gradients. CD4^+ T cells were magnetically selected (autoMACS, Miltenyi). Adult memory CD4^+ T cell subsets were further purified as CD3^+CD4^+CD25^− CD45RO^+CCR6^+CD161^+ by cell sorting on a FACSAria (BD). Naive CD4^+ T cells were isolated from cord blood as CD3^+CD4^+CD45RA^+HLA-DR^−CD25^−DAPI^−. Memory cells were activated with anti-CD3/CD28 coated beads (1 bead/cell) in T cell media (see above) supplemented with 100 U/mL IL-2 (Peprotech), 10 ng/mL IL-1b and 10 ng/mL IL-23 (eBioscience). Naive cells were activated with anti-CD3/CD28 beads and cultured with the same cytokines, and TGF-b (0, 0.1, 1, or, 10 ng/mL) (Peprotech), in XVIVO-20 (Lonza) media. […] Naive CD4^+ T cells, cultured in XVIVO-20 media supplemented 100 U/mL IL-2 (Peprotech), were transduced with RORad-IRES-GFP or RORγt-IRES-GFP on day 1 and analyzed on day 6. GFP expressing cells were gated for analysis. DMSO or compounds were added 6-8 hours after the viral transduction.
Blood samples were obtained from the New York Blood Center. Mononuclear cells were prepared from buffy coats from healthy adult donors or from cord blood, using FicollPAQUE gradients. CD4^+ T cells were magnetically selected (autoMACS, Miltenyi). Adult memory CD4+ T cell subsets were further purified as CD3^+CD4^+CD25^−CD45RO^+CCR6^+CD161^+ by cell sorting on a FACSAria (BD). Naive CD4^+ T cells were isolated from cord blood as CD3^+CD4^+CD45RA^+HLA^−DR^−CD25^−DAPI^−. Memory cells were activated with anti-CD3/CD28 coated beads (1 bead/cell) in T cell media (see above) supplemented with 100 U/mL IL-2 (Peprotech), 10 ng/mL IL-1β and 10 ng/mL IL-23 (eBioscience). Naive cells were activated with anti-CD3/CD28 beads and cultured with the same cytokines, and TGF-β (0, 0.1, 1, or, 10 ng/mL) (Peprotech), in XVIVO-20 (Lonza) media. […] Naive CD4+ T cells, cultured in XVIVO-20 media supplemented with 100 U/mL IL-2 (Peprotech), were transduced with RORαd-IRES-GFP or RORγt-IRES-GFP on day 1 and analyzed on day 6. GFP expressing cells were gated for analysis. DMSO or compounds were added 6-8 hours after the viral transduction.

[2] = biological target: T1, DHR3 (Drosophila melanogaster, UniProt P31396); test: S2 cell DHR3 luciferase reporter; assay type: cell-based; details: 10 μM, FIG. 1c
T1 construct: Drosophila DHR3 (amino acids 120 to end); expressed in transfected cells
T1 sequence (P31396 120-487 limits assumed): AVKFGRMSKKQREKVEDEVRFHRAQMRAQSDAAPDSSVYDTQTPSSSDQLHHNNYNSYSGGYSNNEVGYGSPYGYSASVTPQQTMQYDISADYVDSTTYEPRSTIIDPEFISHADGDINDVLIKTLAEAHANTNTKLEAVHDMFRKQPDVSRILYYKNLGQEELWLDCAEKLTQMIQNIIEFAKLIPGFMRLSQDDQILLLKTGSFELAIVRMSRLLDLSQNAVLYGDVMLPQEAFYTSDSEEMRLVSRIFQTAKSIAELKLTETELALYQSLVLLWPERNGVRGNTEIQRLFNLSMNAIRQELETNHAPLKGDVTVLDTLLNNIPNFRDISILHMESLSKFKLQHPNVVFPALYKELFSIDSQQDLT
From the text: The Drosophila S2 cell line was originally purchased from Invitrogen and was maintained in Schneider's medium supplemented with 10% heat-inactivated bovine fetal calf serum and antibiotics (Invitrogen). Gal4 DNA binding domain (G4 DBD) corresponding to amino acids 1 through 147 of Gal4 protein was PCR amplified to make a fusion construct with mouse RORγt (amino acids 79 to the carboxyl terminal end) lacking its DNA binding domain. The resulting chimeric gene was subcloned into the copper inducible pMT/V5-His A vector (Invitrogen). In a similar manner, Gal4 fusion constructs were prepared with mouse RORα (amino acids 142 to end) or Drosophila DHR3 (amino acids 120 to end). Coding sequences for firefly luciferase (Promega) were PCR amplified and subcloned into pUAST vector containing Gal4 binding enhancer sequences. Renilla luciferase construct under the polIII promoter was obtained from Dr. Dasgupta's laboratory (NYU medical center). In order to generate stable cell lines, cells were co-transfected with pMT-G4 DBD-RORγt, pMT-G4 DBD-RORα, pMT-G4 DBD-DHR3, or pMT-G4 DBDVP16 and pHygro plasmids (Invitrogen) and screened for resistant colonies in the presence of hygromycin (0.3 mg/mL). […]

Row | SMILES | expression of CCR6 [1] | IFN-γ expression in T cells ([1]; FIG. 3c) | Th17 cell differentiation ([1]; FIG. 3c) | inhibition at 40 µM ([1]; Homo sapiens, CD4+ T, read-out: Th17 inhibition) [%] | effect on transcriptional activity of DHR3 [2]
1 | CC1O[C@@H](OC2C(C)O[C@H](OC3C(C)O[C@@H](O[C@H]4CC[C@@]5(C)[C@H](CC[C@@H]6[C@@H]5C[C@@H](O)[C@]5(C)[C@@H](C(CO)CCO)CC[C@]65O)C4)C[C@H]3O)C[C@H]2O)C[C@@H](O)C1O (some centres unmarked) [Compound 13, 20,22-Dihydrodigoxin-21,23-diol] | reduced | reciprocal increases | blocked | ~80 | –
2 | C[C@H]1O[C@@H](O[C@H]2[C@@H](O)C[C@H](O[C@H]3[C@@H](O)C[C@H](O[C@H]4CC[C@@]5(C)[C@H](CC[C@@H]6[C@@H]5C[C@@H](O)[C@]5(C)[C@@H](C7=CC(=O)OC7)CC[C@]65O)C4)O[C@@H]3C)O[C@@H]2C)C[C@H](O)[C@@H]1O [Digoxin] | – | – | – | – | no effect
